± gives the standard deviation of the averaged measurements.
What was measured:
Conditions in all cases: treatment time: 3 days
UT-SCC-40 = experiment: maximal % inhibition of viability relative to DMSO; higher = stronger effect
Description: (§1)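 HNSCC cell lines (500 cells/well, 384-well) were cultured on plastic, on top of (2D) or embedded (3D) in Matrigel or human leiomyoma matrix Myogel (500 ug/mL; Myogel 3D mixed with rat collagen I). Cells were treated for 3 days with 5 ten-fold concentrations of each drug, and viability was read by CellTiter-Glo. Viability was normalised to DMSO and benzethonium chloride controls and fitted with the FIMM DSRT pipeline to give IC50 (nM), maximal % inhibition and DSS. Suffixes _1/_2/_3 are replicates. Only inhibition-mode (IC50) fits are kept.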

UT-SCC-81 = experiment: as above
Description: as §1

UT-SCC-14 [1] = experiment: as above
Description: as §1

UT-SCC-42A [2] = experiment: as above
Description: as §1

UT-SCC-8 = experiment: as above
Description: as §1

UT-SCC-106A [3] = experiment: as above
Description: as §1

UT-SCC-42B [4] = experiment: as above
Description: as §1

UT-SCC-24B = experiment: as above
Description: as §1

UT-SCC-44 = experiment: as above
Description: as §1

UT-SCC-73 = experiment: as above
Description: as §1

UT-SCC-28 = experiment: as above
Description: as §1

UT-SCC-24A [5] = experiment: drug sensitivity score (DSS); higher = more sensitive
Description: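 HNSCC cell lines (500 cells/well, 384-well) were cultured on plastic, on top of (2D) or embedded (3D) in Matrigel or human leiomyoma matrix Myogel (500 ug/mL; Myogel 3D mixed with rat collagen I). Cells were treated for 3 days with 5 ten-fold concentrations of each drug, and viability was read by CellTiter-Glo. Suffixes _1/_2/_3 on drug names are replicates.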

UT-SCC-14 [6] = experiment: drug sensitivity score (DSS); higher = more sensitive; extreme values may be limits of the assay
Outline: (§2)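 Using 384-well plates, 500 cells/well of HPV-negative HNSCC cell lines were grown on plastic, on 500 µg/mL Matrigel or Myogel coatings, or embedded in Matrigel or Myogel with rat collagen I. They were treated with compounds at five 10-fold concentrations for 3 days, and luminescence from CellTiter-Glo 2.0 was normalised to vehicle (0.1% DMSO) and cell-killing control wells. IC50, maximal inhibition and drug sensitivity score were derived from percent-inhibition dose–response curves in the FIMM pipeline.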

UT-SCC-42A [7] = experiment: as above
Outline: as §2

UT-SCC-106A [8] = experiment: as above
Outline: as §2

UT-SCC-42B [9] = experiment: as above
Outline: as §2

UT-SCC-24A [10] = experiment: relative IC50 (midpoint of the fitted curve; maximal inhibition may be below 50%); higher = less potent
Description: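 HNSCC cell lines (500 cells/well, 384-well) were cultured on plastic, on top of (2D) or embedded (3D) in Matrigel or human leiomyoma matrix Myogel (500 ug/mL; Myogel 3D mixed with rat collagen I). Cells were treated for 3 days with 5 ten-fold concentrations of each drug, and viability was read by CellTiter-Glo. Viability was normalised to DMSO (0% inhibition) and 100 uM benzethonium chloride (100% inhibition) controls and fitted with the FIMM DSRT pipeline to give IC50 (nM), maximal % inhibition and the drug sensitivity score (DSS). Suffixes _1/_2/_3 on drug names are replicates.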

[11] = culture condition: embedded in Matrigel
[12] = culture condition: embedded in Myogel + collagen I
[13] = culture condition: on top of Matrigel
[14] = culture condition: on top of Myogel
[15] = culture condition: plastic 2D (no matrix)

- relative IC50 (UT-SCC-24A [10]; [12]): 1560 nM
- relative IC50 (UT-SCC-24A [10]; [13]): 860 nM
- relative IC50 (UT-SCC-24A [10]; [14]): > 9890 nM
- relative IC50 (UT-SCC-24A [10]; [15]): 855 nM
SMILES: C#Cc1cccc(Nc2ncnc3cc(OCCOC)c(OCCOC)cc23)c1 [Erlotinib]
- maximal % inhibition of viability (UT-SCC-40; [11]): 18.6 ± 8.3%
- maximal % inhibition of viability (UT-SCC-40; [12]): 11.2 ± 9.4%
- maximal % inhibition of viability (UT-SCC-40; [13]): 7.93 ± 2.4%
- maximal % inhibition of viability (UT-SCC-40; [14]): 7.8 ± 4.5%
- maximal % inhibition of viability (UT-SCC-40; [15]): 9.97 ± 3.5%
- maximal % inhibition of viability (UT-SCC-81; [11]): 77.1 ± 4.2%
- maximal % inhibition of viability (UT-SCC-81; [12]): 6.5 ± 5.1%
- maximal % inhibition of viability (UT-SCC-81; [13]): 62 ± 6.1%
- maximal % inhibition of viability (UT-SCC-81; [14]): 15.7 ± 4.9%
- maximal % inhibition of viability (UT-SCC-81; [15]): 12.4 ± 3.9%
- maximal % inhibition of viability (UT-SCC-14 [1]; [11]): 29.5 ± 7.8%
- maximal % inhibition of viability (UT-SCC-14 [1]; [12]): 9.87 ± 4.7%
- maximal % inhibition of viability (UT-SCC-14 [1]; [13]): 9.6 ± 10%
- maximal % inhibition of viability (UT-SCC-14 [1]; [14]): 11.6 ± 10%
- maximal % inhibition of viability (UT-SCC-14 [1]; [15]): 8.77 ± 15%
- maximal % inhibition of viability (UT-SCC-42A [2]; [11]): 23.9 ± 23%
- maximal % inhibition of viability (UT-SCC-42A [2]; [12]): 9.7 ± 4.9%
- maximal % inhibition of viability (UT-SCC-42A [2]; [13]): 32.1 ± 18%
- maximal % inhibition of viability (UT-SCC-42A [2]; [14]): 12.6 ± 2.3%
- maximal % inhibition of viability (UT-SCC-42A [2]; [15]): 20.6 ± 17%
- maximal % inhibition of viability (UT-SCC-8; [11]): 67.3 ± 28%
- maximal % inhibition of viability (UT-SCC-8; [12]): 14.7 ± 22%
- maximal % inhibition of viability (UT-SCC-8; [13]): 55.5 ± 29%
- maximal % inhibition of viability (UT-SCC-8; [14]): 21.4 ± 0.72%
- maximal % inhibition of viability (UT-SCC-8; [15]): 40.5 ± 14%
- maximal % inhibition of viability (UT-SCC-106A [3]; [11]): 25.1 ± 5.3%
- maximal % inhibition of viability (UT-SCC-106A [3]; [12]): 10.4 ± 0.53%
- maximal % inhibition of viability (UT-SCC-106A [3]; [13]): 23.6 ± 11%
- maximal % inhibition of viability (UT-SCC-106A [3]; [14]): 2.57 ± 2.4%
- maximal % inhibition of viability (UT-SCC-106A [3]; [15]): 19.6 ± 7.3%
- maximal % inhibition of viability (UT-SCC-42B [4]; [11]): 36.7 ± 12%
- maximal % inhibition of viability (UT-SCC-42B [4]; [13]): 13.7 ± 13%
- maximal % inhibition of viability (UT-SCC-42B [4]; [14]): 4.07 ± 4.7%
- maximal % inhibition of viability (UT-SCC-42B [4]; [15]): 4.5 ± 0.98%
- maximal % inhibition of viability (UT-SCC-24B; [11]): 76.5 ± 0.95%
- maximal % inhibition of viability (UT-SCC-24B; [12]): 67.5 ± 6.2%
- maximal % inhibition of viability (UT-SCC-24B; [13]): 74.4 ± 3%
- maximal % inhibition of viability (UT-SCC-24B; [14]): 59.3 ± 5%
- maximal % inhibition of viability (UT-SCC-24B; [15]): 80.9 ± 1.6%
- maximal % inhibition of viability (UT-SCC-44; [11]): 6.07 ± 5.3%
- maximal % inhibition of viability (UT-SCC-44; [12]): 10 ± 9.8%
- maximal % inhibition of viability (UT-SCC-44; [13]): 14.1 ± 8.5%
- maximal % inhibition of viability (UT-SCC-44; [14]): 20.4 ± 11%
- maximal % inhibition of viability (UT-SCC-44; [15]): 15.9 ± 13%
- maximal % inhibition of viability (UT-SCC-73; [11]): 11.2 ± 8.1%
- maximal % inhibition of viability (UT-SCC-73; [12]): 13.6 ± 19%
- maximal % inhibition of viability (UT-SCC-73; [13]): 13.9 ± 3.5%
- maximal % inhibition of viability (UT-SCC-73; [14]): 9.4 ± 5.2%
- maximal % inhibition of viability (UT-SCC-73; [15]): 5.97 ± 2.2%
- maximal % inhibition of viability (UT-SCC-28; [11]): 11.3 ± 9.9%
- maximal % inhibition of viability (UT-SCC-28; [12]): 14 ± 5.9%
- maximal % inhibition of viability (UT-SCC-28; [13]): 12.2 ± 3.6%
- maximal % inhibition of viability (UT-SCC-28; [15]): 8.37 ± 7.3%
- drug sensitivity score (UT-SCC-24A [5]; [11]): 8.87 ± 3.6 DSS
- drug sensitivity score (UT-SCC-24A [5]; [12]): 1.63 ± 1 DSS
- drug sensitivity score (UT-SCC-24A [5]; [13]): 5.7 ± 1.7 DSS
- drug sensitivity score (UT-SCC-24A [5]; [14]): 0 DSS
- drug sensitivity score (UT-SCC-24A [5]; [15]): 3.03 ± 0.93 DSS
- drug sensitivity score (UT-SCC-14 [6]; [11]): 1.73 ± 0.57 DSS
- drug sensitivity score (UT-SCC-14 [6]; [12]): 0.0333 ± 0.058 DSS
- drug sensitivity score (UT-SCC-14 [6]; [13]): 0.4 ± 0.69 DSS
- drug sensitivity score (UT-SCC-14 [6]; [14]): 0.733 ± 1.3 DSS
- drug sensitivity score (UT-SCC-14 [6]; [15]): 0.9 ± 1.6 DSS
- drug sensitivity score (UT-SCC-42A [7]; [11]): 1.47 ± 2 DSS
- drug sensitivity score (UT-SCC-42A [7]; [12]): 0 DSS
- drug sensitivity score (UT-SCC-42A [7]; [13]): 2.73 ± 2.8 DSS
- drug sensitivity score (UT-SCC-42A [7]; [14]): 0.1 ± 0.1 DSS
- drug sensitivity score (UT-SCC-42A [7]; [15]): 1.73 ± 1.5 DSS
- drug sensitivity score (UT-SCC-106A [8]; [11]): 1.43 ± 0.8 DSS
- drug sensitivity score (UT-SCC-106A [8]; [12]): 0 DSS
- drug sensitivity score (UT-SCC-106A [8]; [13]): 1.53 ± 2.1 DSS
- drug sensitivity score (UT-SCC-106A [8]; [14]): 0 DSS
- drug sensitivity score (UT-SCC-106A [8]; [15]): 1.97 ± 1.7 DSS
- drug sensitivity score (UT-SCC-42B [9]; [11]): 2.4 ± 1.4 DSS
- drug sensitivity score (UT-SCC-42B [9]; [13]): 1 ± 1.7 DSS
- drug sensitivity score (UT-SCC-42B [9]; [14]): 0 DSS
- drug sensitivity score (UT-SCC-42B [9]; [15]): 0 DSS
